Experimental data taken from ChEMBL document CHEMBL1125561, “Inhibition of human leukocyte elastase by N-substituted peptides containing alpha,alpha-difluorostatone residues at P1” (J Med Chem, 1992).
Numbered stars: 1 amine (or outer) side, 2 acyl side, 3 side chain; on linkers, the order of the positions; unused ones are H or OH. Square brackets hold non-standard residues; d marks the D form. Peptide text beside a SMILES is read from it. * marks the point of attachment. X1 = CC(C)[C@H](N[*:1])C(=O)C(F)(F)C(=O)[*:2]; N(Indan-2-yl)Gly = O=C(O)CNC1Cc2ccccc2C1; Cbz = O=C(OCc1ccccc1)*

Assays:
Cricetinae gen. sp. [1] = experiment: Inhibition of Elastase-induced pulmonary Hemorrhage(EPH) in Hamsters at a dose of 20 ug/mL; type: functional, Cricetulus griseus
Neutrophil elastase = molecular target: T1, Neutrophil elastase (Homo sapiens, UniProt P08246); experiment: Inhibitory activity against human leukocyte elastase (HLE) at pH 7.5
T1 sequence (P08246 whole entry): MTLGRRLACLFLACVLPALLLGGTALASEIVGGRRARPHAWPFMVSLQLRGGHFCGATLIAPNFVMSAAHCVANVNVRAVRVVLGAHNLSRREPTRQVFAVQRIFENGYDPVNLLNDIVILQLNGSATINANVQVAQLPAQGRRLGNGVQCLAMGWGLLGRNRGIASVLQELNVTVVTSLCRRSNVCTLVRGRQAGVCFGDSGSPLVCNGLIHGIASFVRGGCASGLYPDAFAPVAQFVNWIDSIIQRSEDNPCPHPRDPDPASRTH

Cricetinae gen. sp. [2] = experiment: Inhibition of Elastase-induced pulmonary Hemorrhage(EPH) in Hamsters at a dose of 10 ug/mL; type: functional, Cricetulus griseus
Cricetinae gen. sp. [3] = experiment: Inhibition of Elastase-induced pulmonary Hemorrhage(EPH) in Hamsters at a dose of 3 ug/mL; type: functional, Cricetulus griseus

| Structure (SMILES) | Max reduction (Cricetinae gen. sp. [1]) [%] | Max reduction (Cricetinae gen. sp. [2]) [%] | also measured |
| --- | --- | --- | --- |
| CCOC(=O)CNC(=O)CNC(=O)C(F)(F)C(=O)[C@@H](NC(=O)CN(C(=O)[C@@H](NC(=O)OCc1ccccc1)C(C)C)C1Cc2ccccc2C1)C(C)C (Cbz-V[N(Indan-2-yl)Gly][X1]GG-OEt) | 33.3 |  |  |
| CCOC(=O)C(F)(F)C(=O)[C@H](CC(C)C)NC(=O)CN(C(=O)[C@@H](NC(=O)c1ccc(C(=O)NS(=O)(=O)c2ccc(Cl)cc2)cc1)C(C)C)C1Cc2ccccc2C1 | 55.2 |  |  |
| CCOC(=O)C(F)(F)C(=O)[C@H](Cc1ccccc1)NC(=O)CN(C(=O)[C@@H](NC(=O)c1ccc(C(=O)NS(=O)(=O)c2ccc(Cl)cc2)cc1)C(C)C)C1Cc2ccccc2C1 |  | 12.2 | IC50 (Neutrophil elastase): > 5 µM |
| CCOC(=O)C(F)(F)C(=O)[C@@H](NC(=O)CN(C(=O)[C@@H](NC(=O)c1ccc(C(=O)NS(=O)(=O)c2ccc(Cl)cc2)cc1)C(C)C)C1Cc2ccccc2C1)C(C)C |  | 94.6 |  |
| CC(C)C(NC(=O)CN(C(=O)[C@@H](NC(=O)c1ccc(C(=O)NS(=O)(=O)c2ccc(Cl)cc2)cc1)C(C)C)C1Cc2ccccc2C1)C(=O)C(F)(F)F (stereo partly specified) |  | 90.5 | Max reduction (Cricetinae gen. sp. [3]): 58.1% |
| COC(=O)[C@H](CCCCNC(=O)C(F)(F)C(=O)[C@@H](NC(=O)CN(C(=O)[C@@H](NC(=O)OCc1ccccc1)C(C)C)C1Cc2ccccc2C1)C(C)C)NC(C)=O | 7.6 |  |  |
| CCOC(=O)C(F)(F)C(=O)[C@@H](NC(=O)CN(C(=O)[C@@H](NC(=O)OCc1ccccc1)C(C)C)C1Cc2ccccc2C1)C(C)C | 51.9 |  |  |
| CC(C)[C@H](NC(=O)OCc1ccccc1)C(=O)N(CC(=O)N[C@H](C(=O)C(F)(F)C(=O)O)C(C)C)C1Cc2ccccc2C1 | 55.8 |  | IC50 (Neutrophil elastase): > 5 µM |
